Data taken from patent publication US9382258B2, “Agents for treating pain and uses thereof” (AbbVie Inc., priority 2012, dated 2016).

What follows are compounds tested against T1, human Cav2.2 (Homo sapiens, UniProt Q00975) (assay: Calcium flux (FLIPR, Calcium 4 dye) in IMR32 cells endogenously expressing human Cav2.2). Details: 60 minute pre-incubation, 2 μM nifedipine to block L-type channels, depolarized with 80 mM KCl, 5 mM CaCl2, average of n≥2 runs unless marked *.
T1 construct: cells endogenously expressing human Cav2.2; endogenous in cells; host or cells: IMR32 cells
Assay type: cell-based
Protocol: Compounds were tested for effect on calcium flux in cells endogenously expressing human Cav2.2. Specifically, IMR32 cells endogenously expressing human Cav2.2 were assayed for Ca^2+ influx using a no-wash calcium indicator dye (Calcium 4 dye: Molecular Probes) and FLIPR technology (Lubin, M L; et al. Assay and Drug Development Technologies, 2006, 4(6), 689-694). The IMR32 cells were maintained in MEM media containing 10% (v/v) FBS, 1% (v/v) antibiotic/antimitotic, 1% (v/v) sodium pyruvate and 1% (v/v) MEM NEAA. Following dissociation in 0.05% (v/v) trypsin/EDTA, cells were seeded into black 1×96-well plates (Corning Cellbind) at a density of 1−1.2×10^5 cells/well and incubated in the maintenance media above for 48 hours at 37° C. Immediately prior to performing the assay the media was removed and cells were loaded for 1.5 hours with 1× Calcium 4 dye prepared in HBSS (137 mM NaCl, 5.4 mM KCl, 0.25 mM Na2HPO4, 0.44 mM KH2PO4, 1.3 mM CaCl2, 1 mM MgSO4, 4.2 mM NaHCO3) containing HEPES pH 7.4 at room temperature. After dye loading and a subsequent 60 minute pre-incubation with compounds (full log dilutions from 10 μM to 0.1 nM) in the presence of 1.3 mM CaCl2 and 2 μM nifedipine to block endogenous L-type channels, the external Ca^2+ concentration was increased to 5 mM CaCl2 and the cells concomitantly depolarized with 80 mM KCl to assay channel activity.
To determine the IC50 values, the percent inhibition of the compound at each concentration was determined relative to the activity in the absence of inhibitor, and data was fitted using non-linear regression sigmoidal dose response curve analysis with GraphPad Prism®. Unless otherwise indicated (*), the reported values are average values from at least two runs (i.e., n≧2).

T1 sequence (Q00975 whole entry): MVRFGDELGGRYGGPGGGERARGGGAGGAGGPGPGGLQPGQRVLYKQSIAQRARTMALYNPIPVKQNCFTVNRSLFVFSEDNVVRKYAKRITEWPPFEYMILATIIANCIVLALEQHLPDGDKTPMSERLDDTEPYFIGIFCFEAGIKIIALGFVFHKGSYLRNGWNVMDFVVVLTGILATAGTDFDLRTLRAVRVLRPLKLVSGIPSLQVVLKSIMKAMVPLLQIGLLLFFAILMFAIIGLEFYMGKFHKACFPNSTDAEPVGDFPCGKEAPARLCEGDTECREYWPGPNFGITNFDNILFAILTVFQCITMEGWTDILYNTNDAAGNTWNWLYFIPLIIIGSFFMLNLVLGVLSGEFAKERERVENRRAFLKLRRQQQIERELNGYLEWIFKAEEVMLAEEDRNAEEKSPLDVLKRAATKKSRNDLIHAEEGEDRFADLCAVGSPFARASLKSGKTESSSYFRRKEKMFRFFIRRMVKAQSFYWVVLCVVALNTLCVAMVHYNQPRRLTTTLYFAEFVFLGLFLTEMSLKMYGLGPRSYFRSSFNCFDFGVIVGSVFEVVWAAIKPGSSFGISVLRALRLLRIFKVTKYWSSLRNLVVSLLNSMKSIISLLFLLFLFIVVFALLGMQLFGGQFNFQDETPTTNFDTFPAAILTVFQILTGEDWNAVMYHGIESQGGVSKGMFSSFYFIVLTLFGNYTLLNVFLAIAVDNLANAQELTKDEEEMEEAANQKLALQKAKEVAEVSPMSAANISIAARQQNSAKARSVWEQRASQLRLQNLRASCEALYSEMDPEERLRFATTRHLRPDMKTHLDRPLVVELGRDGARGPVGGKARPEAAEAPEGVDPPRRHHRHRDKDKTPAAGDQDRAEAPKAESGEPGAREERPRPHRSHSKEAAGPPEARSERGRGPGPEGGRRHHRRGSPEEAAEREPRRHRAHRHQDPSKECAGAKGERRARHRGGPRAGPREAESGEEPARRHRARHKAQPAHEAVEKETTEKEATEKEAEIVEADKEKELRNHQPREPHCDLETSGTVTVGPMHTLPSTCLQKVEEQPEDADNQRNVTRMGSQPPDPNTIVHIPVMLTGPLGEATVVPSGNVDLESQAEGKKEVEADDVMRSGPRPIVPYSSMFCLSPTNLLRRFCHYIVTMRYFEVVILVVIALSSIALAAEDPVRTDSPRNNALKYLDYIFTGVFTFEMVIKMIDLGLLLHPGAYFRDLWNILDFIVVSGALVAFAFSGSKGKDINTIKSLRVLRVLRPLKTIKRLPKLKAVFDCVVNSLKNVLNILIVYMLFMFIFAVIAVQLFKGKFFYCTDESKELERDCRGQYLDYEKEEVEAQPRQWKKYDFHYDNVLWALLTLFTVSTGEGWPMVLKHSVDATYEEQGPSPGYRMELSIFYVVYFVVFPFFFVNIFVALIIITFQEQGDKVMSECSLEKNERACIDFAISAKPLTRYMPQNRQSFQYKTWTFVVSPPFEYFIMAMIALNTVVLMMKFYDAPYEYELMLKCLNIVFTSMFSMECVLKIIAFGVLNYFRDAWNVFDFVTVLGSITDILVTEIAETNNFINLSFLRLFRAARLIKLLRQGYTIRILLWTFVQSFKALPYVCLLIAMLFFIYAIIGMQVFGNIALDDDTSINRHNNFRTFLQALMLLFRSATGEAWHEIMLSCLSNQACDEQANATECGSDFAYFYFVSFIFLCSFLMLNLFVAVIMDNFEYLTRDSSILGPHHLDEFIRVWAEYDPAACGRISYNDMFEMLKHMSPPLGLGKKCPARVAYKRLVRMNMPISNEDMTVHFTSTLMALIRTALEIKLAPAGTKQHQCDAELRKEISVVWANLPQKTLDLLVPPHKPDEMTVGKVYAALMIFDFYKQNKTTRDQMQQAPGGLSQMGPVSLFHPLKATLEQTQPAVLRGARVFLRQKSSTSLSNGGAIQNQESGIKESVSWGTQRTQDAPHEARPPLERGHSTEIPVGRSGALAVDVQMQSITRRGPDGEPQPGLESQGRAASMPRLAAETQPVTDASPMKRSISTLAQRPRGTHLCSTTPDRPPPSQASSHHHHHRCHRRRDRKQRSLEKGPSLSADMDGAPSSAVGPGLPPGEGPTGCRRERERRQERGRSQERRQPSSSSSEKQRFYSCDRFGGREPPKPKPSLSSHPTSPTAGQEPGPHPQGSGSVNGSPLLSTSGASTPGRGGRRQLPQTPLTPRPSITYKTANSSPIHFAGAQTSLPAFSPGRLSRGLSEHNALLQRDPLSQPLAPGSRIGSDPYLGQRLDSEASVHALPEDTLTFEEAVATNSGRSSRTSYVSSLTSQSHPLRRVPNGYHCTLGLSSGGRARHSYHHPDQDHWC
T1 sequence (P54284 whole entry partner): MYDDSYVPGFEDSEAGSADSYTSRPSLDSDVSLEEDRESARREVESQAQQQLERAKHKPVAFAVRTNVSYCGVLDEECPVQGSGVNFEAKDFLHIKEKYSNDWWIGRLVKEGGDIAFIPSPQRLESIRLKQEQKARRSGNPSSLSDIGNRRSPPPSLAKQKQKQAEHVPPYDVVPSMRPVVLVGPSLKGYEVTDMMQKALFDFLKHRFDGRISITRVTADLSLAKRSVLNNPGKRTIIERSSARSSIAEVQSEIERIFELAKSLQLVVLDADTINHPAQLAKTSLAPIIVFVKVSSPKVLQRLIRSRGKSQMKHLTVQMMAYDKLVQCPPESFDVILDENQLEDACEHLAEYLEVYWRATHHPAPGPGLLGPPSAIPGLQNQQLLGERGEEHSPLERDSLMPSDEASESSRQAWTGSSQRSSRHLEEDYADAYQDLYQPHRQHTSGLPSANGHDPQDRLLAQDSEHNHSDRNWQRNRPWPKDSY
T1 sequence (P54289 25-956 partner limits assumed): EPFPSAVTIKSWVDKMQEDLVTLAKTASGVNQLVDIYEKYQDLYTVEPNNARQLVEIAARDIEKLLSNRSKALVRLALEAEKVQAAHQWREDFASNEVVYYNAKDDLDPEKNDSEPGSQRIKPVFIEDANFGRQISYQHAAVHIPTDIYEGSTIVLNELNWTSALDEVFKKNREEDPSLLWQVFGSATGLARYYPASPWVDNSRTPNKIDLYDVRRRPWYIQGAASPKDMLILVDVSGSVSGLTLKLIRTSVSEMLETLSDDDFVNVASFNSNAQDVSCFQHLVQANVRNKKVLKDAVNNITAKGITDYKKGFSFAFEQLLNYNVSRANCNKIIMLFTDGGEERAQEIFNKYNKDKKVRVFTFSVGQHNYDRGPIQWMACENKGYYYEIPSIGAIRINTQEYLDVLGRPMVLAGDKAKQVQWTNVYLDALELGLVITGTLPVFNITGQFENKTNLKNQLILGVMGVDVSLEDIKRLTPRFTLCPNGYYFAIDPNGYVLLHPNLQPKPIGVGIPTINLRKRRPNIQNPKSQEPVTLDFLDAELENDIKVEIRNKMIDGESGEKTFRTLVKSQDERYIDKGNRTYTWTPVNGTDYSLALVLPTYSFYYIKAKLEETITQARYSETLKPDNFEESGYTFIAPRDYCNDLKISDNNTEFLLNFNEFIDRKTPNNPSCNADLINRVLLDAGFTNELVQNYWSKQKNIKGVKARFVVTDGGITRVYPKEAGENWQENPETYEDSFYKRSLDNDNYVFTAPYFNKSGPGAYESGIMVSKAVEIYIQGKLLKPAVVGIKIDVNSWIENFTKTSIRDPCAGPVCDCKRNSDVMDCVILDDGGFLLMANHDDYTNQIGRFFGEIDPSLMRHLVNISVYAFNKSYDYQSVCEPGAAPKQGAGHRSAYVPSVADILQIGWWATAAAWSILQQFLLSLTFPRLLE
T1 sequence (P54289 957-1103 partner limits assumed): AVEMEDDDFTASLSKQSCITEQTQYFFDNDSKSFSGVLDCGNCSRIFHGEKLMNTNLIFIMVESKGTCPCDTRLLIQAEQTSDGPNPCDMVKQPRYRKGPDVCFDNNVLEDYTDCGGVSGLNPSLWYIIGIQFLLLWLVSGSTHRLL

IC50 [nM] | Compound
4700 | O=C(C(O)c1cccc(C(F)(F)F)c1)N1CCC(=O)N2C[C@H](Oc3cnc(C4CC4)cn3)C[C@H]2C1 (stereo partly drawn) [Example 40, (8R,9aS)-8-[(5-cyclopropylpyrazin-2-yl)oxy]-2-{hydroxy[3-(trifluoromethyl)phenyl]acetyl}octahydro-5H-pyrrolo[1,2-a][1,4]diazepin-5-one]
1200 | O=C1CCN(S(=O)(=O)c2ccc(C(F)(F)F)cc2)C[C@@H]2C[C@H](Oc3cnc(C4CC4)cn3)CN12 [Example 61, (8S,9aS)-8-[(5-cyclopropylpyrazin-2-yl)oxy]-2-{[4-(trifluoromethyl)phenyl]sulfonyl}octahydro-5H-pyrrolo[1,2-a][1,4]diazepin-5-one]
3040 | O=C(c1ccc(F)cc1)N1CCCN2C[C@H](Oc3cnc(C4CC4)cn3)C[C@H]2C1 [Example 8, [(8R,9aS)-8-[(5-cyclopropylpyrazin-2-yl)oxy]hexahydro-1H-pyrrolo[1,2-a][1,4]diazepin-2(3H)-yl](4-fluorophenyl)methanone]
1450 | O=C(c1ccc(F)c(C(F)(F)F)c1)N1CCCN2C[C@H](Oc3cnc(C4CC4)cn3)C[C@H]2C1 [Example 14, [(8R,9aS)-8-[(5-cyclopropylpyrazin-2-yl)oxy]hexahydro-1H-pyrrolo[1,2-a][1,4]diazepin-2(3H)-yl][4-fluoro-3-(trifluoromethyl)phenyl]methanone]
11200 | O=C(c1cccc(C(F)(F)F)c1)N1CCC(=O)N2C[C@H](Oc3cnc(C4CC4)cn3)C[C@@H]2C1 [Example 57, (8R,9aR)-8-[(5-cyclopropylpyrazin-2-yl)oxy]-2-[3-(trifluoromethyl)benzoyl]octahydro-5H-pyrrolo[1,2-a][1,4]diazepin-5-one]
1140 | O=C(c1cccc(OC(F)(F)F)c1)N1CCC(=O)N2C[C@H](Oc3cnc(C4CC4)cn3)C[C@H]2C1 [Example 37, (8R,9aS)-8-[(5-cyclopropylpyrazin-2-yl)oxy]-2-[3-(trifluoromethoxy)benzoyl]octahydro-5H-pyrrolo[1,2-a][1,4]diazepin-5-one]
2080 | O=C(Cc1cccc(C(F)(F)F)c1)N1CCC(=O)N2C[C@H](Oc3cnc(C4CC4)cn3)C[C@H]2C1 [Example 39]
1100 | O=C1[C@@H]2C[C@@H](Oc3cnc(C4CC4)cn3)CN2CCCN1Cc1ccc(F)c(C(F)(F)F)c1 [Example 26, (8R,9aS)-8-[(5-cyclopropylpyrazin-2-yl)oxy]-2-[4-fluoro-3-(trifluoromethyl)benzyl]octahydro-1H-pyrrolo[1,2-a][1,4]diazepin-1-one]
6340 | O=C1CCN(c2ccc(C(F)(F)F)cn2)C[C@@H]2C[C@H](Oc3cnc(C4CC4)cn3)CN12 [Example 30, (8S,9aS)-8-[(5-cyclopropylpyrazin-2-yl)oxy]-2-[5-(trifluoromethyl)pyridin-2-yl]octahydro-5H-pyrrolo[1,2-a][1,4]diazepin-5-one]
1010 | O=C(c1cccc(C(F)(F)F)c1F)N1CCC(=O)N2C[C@H](Oc3cnc(C4CC4)cn3)C[C@H]2C1 [Example 34, (8R,9aS)-8-[(5-cyclopropylpyrazin-2-yl)oxy]-2-[2-fluoro-3-(trifluoromethyl)benzoyl]octahydro-5H-pyrrolo[1,2-a][1,4]diazepin-5-one]
880 | O=C1[C@H](Oc2ccc(C(F)(F)F)cn2)C[C@H]2CN(S(=O)(=O)c3cccc(C(F)(F)F)c3)CCCN12 [Example 4, (8R,9aS)-2-{[3-(trifluoromethyl)phenyl]sulfonyl}-8-{[5-(trifluoromethyl)pyridin-2-yl]oxy}octahydro-7H-pyrrolo[1,2-a][1,4]diazepin-7-one]
490 | O=C1CCN(S(=O)(=O)c2ccc(C(F)(F)F)cc2)C[C@@H]2C[C@@H](Oc3cnc(C4CC4)cn3)CN12 [Example 29, (8R,9aS)-8-[(5-cyclopropylpyrazin-2-yl)oxy]-2-{[4-(trifluoromethyl)phenyl]sulfonyl}octahydro-5H-pyrrolo[1,2-a][1,4]diazepin-5-one]
2200 | O=C1CCN(S(=O)(=O)c2ccc(C(F)(F)F)cc2)C[C@H]2C[C@H](Oc3cnc(C4CC4)cn3)CN12 [Example 64, (8S,9aR)-8-[(5-cyclopropylpyrazin-2-yl)oxy]-2-{[4-(trifluoromethyl)phenyl]sulfonyl}octahydro-5H-pyrrolo[1,2-a][1,4]diazepin-5-one]
22500 | O=C(c1cccc(C(F)(F)F)c1)N1CCC(=O)N2C[C@@H](Oc3cnc(C4CC4)cn3)C[C@@H]2C1 [Example 63, (8S,9aR)-8-[(5-cyclopropylpyrazin-2-yl)oxy]-2-[3-(trifluoromethyl)benzoyl]octahydro-5H-pyrrolo[1,2-a][1,4]diazepin-5-one]
3170 | O=C1CCN(Cc2ccc(OC(F)(F)F)cc2)C[C@@H]2C[C@H](Oc3cnc(C4CC4)cn3)CN12 [Example 59, (8S,9aS)-8-[(5-cyclopropylpyrazin-2-yl)oxy]-2-[4-(trifluoromethoxy)benzyl]octahydro-5H-pyrrolo[1,2-a][1,4]diazepin-5-one]
750 | FC(F)(F)c1cccc(N2CCCN3C[C@H](Oc4cnc(C5CC5)cn4)C[C@H]3C2)n1 [Example 20, (8R,9aS)-8-[(5-cyclopropylpyrazin-2-yl)oxy]-2-[6-(trifluoromethyl)pyridin-2-yl]octahydro-1H-pyrrolo[1,2-a][1,4]diazepane]
1290 | O=C1CCN(S(=O)(=O)c2ccc(C(F)(F)F)cc2)C[C@@H]2C[C@@H](Oc3ccc(C(F)(F)F)nc3)CN12 [Example 54, (8R,9aS)-2-{[4-(trifluoromethyl)phenyl]sulfonyl}-8-{[6-(trifluoromethyl)pyridin-3-yl]oxy}octahydro-5H-pyrrolo[1,2-a][1,4]diazepin-5-one]
3430 | O=C1CCN(c2ccc(C(F)(F)F)cn2)C[C@H]2C[C@@H](Oc3cnc(C4CC4)cn3)CN12 [Example 55, (8R,9aR)-8-[(5-cyclopropylpyrazin-2-yl)oxy]-2-[5-(trifluoromethyl)pyridin-2-yl]octahydro-5H-pyrrolo[1,2-a][1,4]diazepin-5-one]
2500 | O=C1CCN(Cc2ccc(OC(F)(F)F)cc2)C[C@H]2C[C@@H](Oc3cnc(C4CC4)cn3)CN12 [Example 56, (8R,9aR)-8-[(5-cyclopropylpyrazin-2-yl)oxy]-2-[4-(trifluoromethoxy)benzyl]octahydro-5H-pyrrolo[1,2-a][1,4]diazepin-5-one]
1330 | O=C(c1ccc(C(F)(F)F)c(F)c1)N1CCCN2C[C@H](Oc3cnc(C4CC4)cn3)C[C@H]2C1 [Example 15, [(8R,9aS)-8-[(5-cyclopropylpyrazin-2-yl)oxy]hexahydro-1H-pyrrolo[1,2-a][1,4]diazepin-2(3H)-yl][3-fluoro-4-(trifluoromethyl)phenyl]methanone]
1580 | O=C(c1cc(C(F)(F)F)ccc1F)N1CCCN2C[C@H](Oc3cnc(C4CC4)cn3)C[C@H]2C1 [Example 17, [(8R,9aS)-8-[(5-cyclopropylpyrazin-2-yl)oxy]hexahydro-1H-pyrrolo[1,2-a][1,4]diazepin-2(3H)-yl][2-fluoro-5-(trifluoromethyl)phenyl]methanone]
1110 | O=C1CCN(Cc2cccc(OC(F)(F)F)c2)C[C@@H]2C[C@@H](Oc3cnc(C4CC4)cn3)CN12 [Example 43, (8R,9aS)-8-[(5-cyclopropylpyrazin-2-yl)oxy]-2-[3-(trifluoromethoxy)benzyl]octahydro-5H-pyrrolo[1,2-a][1,4]diazepin-5-one]
1540 | O=C1CCN(c2cccc(C(F)(F)F)n2)C[C@@H]2C[C@@H](Oc3cnc(C4CC4)cn3)CN12 [Example 48, (8R,9aS)-8-[(5-cyclopropylpyrazin-2-yl)oxy]-2-[6-(trifluoromethyl)pyridin-2-yl]octahydro-5H-pyrrolo[1,2-a][1,4]diazepin-5-one]
10000 | O=C1[C@@H]2C[C@@H](Oc3cnc(C4CC4)cn3)CN2CCCN1c1cccc(C(F)(F)F)c1 [Example 27, (8R,9aS)-8-[(5-cyclopropylpyrazin-2-yl)oxy]-2-[3-(trifluoromethyl)phenyl]octahydro-1H-pyrrolo[1,2-a][1,4]diazepin-1-one]
1250 | O=C1[C@@H](Oc2ccc(C(F)(F)F)cn2)C[C@H]2CN(S(=O)(=O)c3cccc(C(F)(F)F)c3)CCCN12 [Example 3, (8S,9aS)-2-{[3-(trifluoromethyl)phenyl]sulfonyl}-8-{[5-(trifluoromethyl)pyridin-2-yl]oxy}octahydro-7H-pyrrolo[1,2-a][1,4]diazepin-7-one]

Compound | IC50 [nM]
(8R,9aS)-8-[(5-cyclopropylpyrazin-2-yl)oxy]-2-{[3-(trifluoromethyl)phenyl]sulfonyl}octahydro-1H-pyrrolo[1,2-a][1,4]diazepane [Example 1] | 320
